A short description of data set [1]: Long-term stability study, water content by TGA/TGMS. The class given is physicochemical. The procedure:
Mass loss due to solvent or water loss from the crystals was determined by TGA. […] The TGA/DSC 3+ was calibrated for temperature with samples of indium and aluminum. Samples (circa 2 mg) were weighed into 100 μL aluminum crucibles and sealed. The seals were pin-holed, and the crucibles heated in the TGA from 25 to 300° C. at a heating rate of 10° C./min. Dry N2 gas was used for purging.
The gases coming from the TGA samples were analyzed by a mass spectrometer Omnistar GSD 301 T2 (Pfeiffer Vacuum GmbH, Germany). The latter is a quadrupole mass spectrometer, which analyzes masses in the […] of 0-200 amu.

Data set [2] in a line: Long-term chemical stability study, API chemical purity by HPLC/LCMS. The class given is physicochemical. As for the experimental part: Assay and purity assessment of the novel crystalline salts • Method name: S19061_01.MV • Sample: • Concentration: 0.3 mg/ml • Diluent: Acetonitrile/water (50/50)
The nature of data set [3]: Thermal stability study in solution (LCMS). The class given is physicochemical. The settings on record: for Area %: approx. 0.3 mg/mL. As for the experimental part:
A thermal stability study was performed on ABN-401 to investigate the chemical stability of the starting material in solution when exposed to elevated temperatures. Solutions of ABN-401 were prepared in acetone, 1,2-dimethoxyethane, and acetonitrile with a concentration of approximately 0.3 mg/mL. Solutions were left at RT for 1 hour and successively, two aliquots of each solution were taken and heated at 50° C. and 80° C. for one hour. All these solutions were analyzed by LCMS. Additionally, the samples kept at RT were remeasured by LCMS after 24 hours to check the chemical degradation over time.
Starting material characterization and purity assessment of the novel crystalline forms of the free base: • Method name: S19061_03.M • Sample: • Concentration: 0.3 mg/ml • Diluent: Acetonitrile

A short description of data set [4]: Physical stability under accelerated aging conditions (AAC), HT-XRPD. Particulars: for Physical stability after exposure to AAC: 40° C./75% RH for 2 days; for Form after AAC: 40° C./75% RH, 2 days (48 hours), HT-XRPD.
Description: Upon completion of the aging time, the solids were separated from the liquid phases, dried under vacuum at 50° C. and analyzed by HT-XRPD. […] Subsequently, all the solids were exposed to accelerated aging conditions (AAC) at 40° C./75% RH for 48 hours and re-measured by HT-XRPD to test their physical stability.
(§1) HT-XRPD patterns were obtained using the Crystallics T2 high-throughput XRPD set-up. The plates were mounted on a Bruker General Area Detector Diffraction System (GADDS) equipped with a VANTEC-500 gas area detector corrected for intensity and geometric variations. The calibration of the measurement accuracy (peaks position) was performed using NIST SRM1976 standard (Corundum).
(§2) Data collection was carried out at room temperature using monochromatic Cu Kα radiation in the 2θ region between 1.5° and 41.5°, which is the most distinctive part of the XRPD pattern. The diffraction pattern of each well was collected in two 20 ranges (1.5°≤2θ≤21.5° for the first frame, and 19.5°≤2θ≤41.5° for the second) with an exposure time of 90 s for each frame. No background subtraction or curve smoothing was applied to the XRPD patterns. The carrier material used during HT-XRPD analysis was transparent to X-rays and contributed only slightly to the background.
The nature of data set [5]: Long-term physical stability study, solid form by HT-XRPD. The class given is physicochemical.
Description: as §1, §2
Data set [6] can be described thus: DVS analysis (hygroscopicity, moisture sorption). Type of data set: physicochemical. The settings on record: for Change in mass at 80% RH / Change of mass in the range 40→95% RH / Water vapor uptake at 95% RH / Change in mass in the range 0→40% RH: 25° C.; for Solid form after DVS analysis: XRPD at end of DVS; for Hygroscopicity classification (European Pharmacopeia): based on change in mass at 80% RH; for Change of mass in the range 40→95% RH / Water vapor uptake at 95% RH: first sorption half-cycle; for Change in mass in the range 0→40% RH: last sorption half-cycle; for Reversibility of water uptake: sorption-desorption-sorption 40-95-0-40% RH. The procedure:
Differences in hygroscopicity (moisture uptake) of the various forms of a solid material provided a measure of their relative stability at increasing relative humidity. Moisture sorption isotherms of small samples were obtained using a DVS-1 system from Surface Measurement Systems (London, UK); this instrument is suitable for use with as little as a few milligrams of sample, with an accuracy of 0.1 μg. The relative humidity was varied during sorption-desorption-sorption (40-95-0-40% RH) at a constant temperature of 25° C., typically with a hold time of 60 minutes per step (10% relative humidity step). At the end of the DVS experiment the sample was measured by XRPD.
The hygroscopicity was classified according to the European Pharmacopoeia Hygroscopicity classification.

Where “and” joins values, the source holds several entries; their conditions need not be identical. Equal values may be shown once. Entries after “also recorded” stand apart in the source; their conditions may differ.

These results are taken from patent US12528817B2, “Method of inhibiting kinase by mesylate salts of triazolopyrazine derivatives” (ABION Inc., priority 2022, dated 2026).

Take `CN1CCN(Cc2ccc(-c3cnc(N4CCOC(Cn5nnc6ncc(-c7cnn(C)c7)nc65)C4)nc3)cc2)CC1` (centres unmarked) [ABN-401]: the “Mass loss attributed to water (TGA) after storage” value (from here on “Mass loss attributed to water”) in data set [1] (25° C./60% RH, 1 month) is 3.7%; in data set [1] (25° C./60% RH, 3 months), 4.1%; in data set [1] (25° C./60% RH, 15 months) it was 3.3%; in data set [1] (25° C./60% RH, 24 months) it was 5.3%; in data set [1] (40° C./75% RH, 1 month), 4.0%; in data set [1] (40° C./75% RH, 3 months), 4.4%. For the same compound, the “Mass loss attributed to water” value in data set [1] (40° C./75% RH, 15 months) is on record as 3.7%; in data set [1] (40° C./75% RH, 24 months) it was 5.2%. The “API chemical purity after storage” value is recorded as 87.2 % (area %) in data set [2] (25° C./60% RH, 24 months) and 90.7 % (area %) in data set [2] (40° C./75% RH, 24 months). In addition, the Area % in data set [3] (1,2-dimethoxyethane, 1 h/50° C.) is on record as 98.6%; in data set [3] (1,2-dimethoxyethane, 1 h/80° C.), 97.7%; in data set [3] (1,2-dimethoxyethane, 1 h/RT), 99.0%; in data set [3] (1,2-dimethoxyethane, 24 h/RT), 98.8%; in data set [3] (ACN, 1 h/50° C.), 99.0%; in data set [3] (ACN, 1 h/80° C.), 98.7%. In addition, the Area % in data set [3] (ACN, 1 h/RT) is 99.0%; in data set [3] (ACN, 24 h/RT), 98.1%; in data set [3] (Acetone, 1 h/50° C.), 99.0%; in data set [3] (Acetone, 1 h/80° C.), 99.0%; in data set [3] (Acetone, 1 h/RT) it was 98.8%; in data set [3] (Acetone, 24 h/RT), 98.5%. Also, in data set [3] (samples kept at 50° C. and 80° C. for one hour, acetone, 1,2-dimethoxyethane, acetonitrile), the “Chemical degradation in solution” value was “No significant chemical degradation”.

Take `CN1CCN(Cc2ccc(-c3cnc(N4CCOC(Cn5nnc6ncc(-c7cnn(C)c7)nc65)C4)nc3)cc2)CC1.CS(=O)(=O)O` (centres unmarked) [Mes1]: in data set [4], the “Physical stability after exposure to AAC” value is “physically stable” and the “Form after AAC” value was “Mes1”.

For `CC1(C)[C@@H]2CC[C@@]1(CS(=O)(=O)O)C(=O)C2.CN1CCN(Cc2ccc(-c3cnc(N4CCOC(Cn5nnc6ncc(-c7cnn(C)c7)nc65)C4)nc3)cc2)CC1` (stereo in doubt) [Camp2], the “Mass loss attributed to water” value is recorded as 1.6% in data set [1] (25° C./60% RH, 1 month); 1.9% in data set [1] (25° C./60% RH, 24 months); 1.8% in data set [1] (40° C./75% RH, 1 month); 7.1% in data set [1] (40° C./75% RH, 3 months); 6.9% in data set [1] (40° C./75% RH, 15 months); 6.7% in data set [1] (40° C./75% RH, 24 months). Besides, the “API chemical purity after storage” value in data set [2] (25° C./60% RH, 1 month) is 99.8 % (area %); in data set [2] (25° C./60% RH, 15 months), 99.5 % (area %) and 97.3 % (area %) and 100 % (area %); in data set [2] (25° C./60% RH, 24 months), 100 % (area %); in data set [2] (40° C./75% RH, 1 month), 99.8 % (area %); in data set [2] (40° C./75% RH, 15 months) it was 93.7 % (area %) and 88.6 % (area %); in data set [2] (40° C./75% RH, 24 months), 88.6 % (area %). Further, the “Solid form (HT-XRPD) after storage” value in data set [5] (25° C./60% RH, 1 month) is listed as “Camp2”; in data set [5] (25° C./60% RH, 3 months) it was “Camp2”; in data set [5] (25° C./60% RH, 15 months), “Camp2”; in data set [5] (25° C./60% RH, 24 months), “no solid form conversion; also recorded: Camp2”; in data set [5] (40° C./75% RH, 1 month), “Camp2”; in data set [5] (40° C./75% RH, 3 months) it was “solid form conversion of Camp2 to Camp4”. The “Solid form (HT-XRPD) after storage” value was “Camp4” in data set [5] (40° C./75% RH, 15 months); “a mixture of a camsylate salt and Form E of the free base; also recorded: Camp3+E” in data set [5] (40° C./75% RH, 24 months). Further, the “Change in mass at 80% RH” value in data set [6] is 1.4%. The “Solid form after DVS analysis” value in data set [6] is “Camp4”. Besides, the “Hygroscopicity classification (European Pharmacopeia)” value in data set [6] is on record as “slightly hygroscopic”. Also, the “Change of mass in the range 40→95% RH” value in data set [6] worked out at 14.1%. The “Water vapor uptake at 95% RH” value in data set [6] was 15.6%. In addition, in data set [6], the “Change in mass in the range 0→40% RH” value worked out at 6.6%. Moreover, the “Reversibility of water uptake” value in data set [6] is reported as “irreversible”. For the same compound, the “Form after AAC” value in data set [4] is on record as “Camp2”.

As to `CN1CCN(Cc2ccc(-c3cnc(N4CCOC(Cn5nnc6ncc(-c7cnn(C)c7)nc65)C4)nc3)cc2)CC1.CS(=O)(=O)O.CS(=O)(=O)O` (centres unmarked) [Mes2], the “Mass loss attributed to water” value in data set [1] (25° C./60% RH, 1 month) is recorded as 8.0%; in data set [1] (25° C./60% RH, 3 months), 7.7%; in data set [1] (25° C./60% RH, 15 months) it was 6.5%; in data set [1] (40° C./75% RH, 1 month), 10.8%; in data set [1] (40° C./75% RH, 3 months), 11.2%; in data set [1] (40° C./75% RH, 15 months) it was 9.6%. Further, in data set [1] (40° C./75% RH, 24 months), the “Mass loss attributed to water” value is listed as ~12.0%. For the same compound, the “API chemical purity after storage” value in data set [2] (25° C./60% RH, 1 month) is 100 % (area %) and 99.7 % (area %); in data set [2] (25° C./60% RH, 3 months), 99.6 % (area %); in data set [2] (25° C./60% RH, 15 months) it was 100 % (area %); in data set [2] (25° C./60% RH, 24 months), 99.6 % (area %); in data set [2] (40° C./75% RH, 1 month), 99.7 % (area %) and 97.2 % (area %); in data set [2] (40° C./75% RH, 3 months), 99.5 % (area %). The “API chemical purity after storage” value is listed as 100 % (area %) in data set [2] (40° C./75% RH, 15 months) and 100 % (area %) in data set [2] (40° C./75% RH, 24 months). The “Solid form (HT-XRPD) after storage” value was “Mes2” in data set [5] (25° C./60% RH, 1 month); “no significant differences in the powder patterns and Mes2” in data set [5] (25° C./60% RH, 3 months); “additional diffraction peaks were detected at 15.1 and 16.5° 2θ; also recorded: Mes2+peaks” in data set [5] (25° C./60% RH, 15 months); “Mes6” in data set [5] (25° C./60% RH, 24 months); “Mes2” in data set [5] (40° C./75% RH, 1 month); “showed these additional peaks; also recorded: Mes2+peaks” in data set [5] (40° C./75% RH, 3 months). Further, the “Solid form (HT-XRPD) after storage” value in data set [5] (40° C./75% RH, 15 months) was “Mes4 and Mes4+peaks”; in data set [5] (40° C./75% RH, 24 months) it was “Mes6”. Also, in data set [6], the “Change in mass at 80% RH” value is recorded as “approximately 12.2%”. The “Solid form after DVS analysis” value in data set [6] is “No change in the solid form”. The “Hygroscopicity classification (European Pharmacopeia)” value in data set [6] is reported as “moderately hygroscopic”. In addition, the “Change of mass in the range 40→95% RH” value in data set [6] turned out to be 24.8%. Also, the “Water vapor uptake at 95% RH” value in data set [6] worked out at 29.6%. Further, the “Change in mass in the range 0→40% RH” value in data set [6] turned out to be 4.6%. The “Reversibility of water uptake” value in data set [6] is “reversible”. Moreover, the “Physical stability after exposure to AAC” value in data set [4] is on record as “physically stable”. Moreover, in data set [4], the “Form after AAC” value was “Mes2”.

As to `CC1(C)[C@@H]2CC[C@@]1(CS(=O)(=O)O)C(=O)C2.CN1CCN(Cc2ccc(-c3cnc(N4CCOC(Cn5nnc6ncc(-c7cnn(C)c7)nc65)C4)nc3)cc2)CC1` (centres unmarked) [Camp1], in data set [4], the “Physical stability after exposure to AAC” value is listed as “physically stable” and the “Form after AAC” value was “Camp1”.

With `CN1CCN(Cc2ccc(-c3cnc(N4CCOC(Cn5nnc6ncc(-c7cnn(C)c7)nc65)C4)nc3)cc2)CC1.CS(=O)(=O)O.CS(=O)(=O)O.CS(=O)(=O)O` (centres unmarked) [Mes3], in data set [4], the “Physical stability after exposure to AAC” value is “became deliquescent” and the “Form after AAC” value is reported as “Mes3 (deliquescent)”.
